How the values were obtained:
Caco-2 cells = experiment: Caco-2 bidirectional permeability; assay type: in vitro ADME; settings: for Caco-2 A2B (10^−6 cm/s): A to B; for Caco-2 A2B (10^−6 cm/s) / Caco-2 B2A (10^−6 cm/s): HBSS pH 7.4, 2 hours; for Caco-2 B2A (10^−6 cm/s): B to A; for Caco-2 ER: Efflux Ratio=Papp (BA)/Papp (AB)
Procedure, shortened: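 Caco-2 monolayers grown 21–28 days on PET inserts were run in duplicate in HBSS with 10 mM HEPES, pH 7.4. Compound was tested in both directions at […] for 2 h at 37 °C and quantified by LC-MS/MS. Papp, % recovery and efflux ratio (B-A/A-B) were calculated, with lucifer yellow checking monolayer integrity.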

[1] = biological target: T1, wt human LRRK2, catalytic site (Homo sapiens, UniProt Q5S007); experiment: TR-FRET LanthaScreen Tb Kinase Activity Assay, LRRK2 kinase inhibition; assay type: biochemical; settings: 2 nM wt human LRRK2, 400 nM peptide, 38 μM ATP
T1 construct: wt human LRRK2, catalytic site, catalytic site (ThermoFisher/USA); purchased ThermoFisher
Procedure, shortened: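 TR-FRET LanthaScreen format: 2 nM wt human LRRK2 catalytic domain with 400 nM fluorescein-ERM (LRRKtide) and 38 μM ATP in Kinase Buffer A, after 15 min compound preincubation. Reaction 120 min at RT, then EDTA plus Tb-anti-pLRRKtide antibody for 60 min; emission ratios analysed per kit protocol.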

T1 sequence (Q5S007 1879-2138 limits assumed): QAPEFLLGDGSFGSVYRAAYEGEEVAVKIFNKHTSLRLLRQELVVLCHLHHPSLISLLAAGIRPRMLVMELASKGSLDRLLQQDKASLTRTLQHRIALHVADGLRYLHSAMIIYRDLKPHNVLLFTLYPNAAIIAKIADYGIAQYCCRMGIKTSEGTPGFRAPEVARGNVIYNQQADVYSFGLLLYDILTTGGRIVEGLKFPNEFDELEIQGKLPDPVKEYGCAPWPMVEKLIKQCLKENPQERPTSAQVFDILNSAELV

Caco-2 A2B (10^−6 cm/s) (Caco-2 cells) | Caco-2 B2A (10^−6 cm/s) (Caco-2 cells) | Caco-2 ER (Caco-2 cells) | IC50 [1] | Compound
H (H (High permeability)”: A2B (B2A)>5) | H (H (High permeability)”: A2B (B2A)>5) | L (L (Likely)”: ER>2.5) | < 2 nM | Cc1n[nH]c2c1N=C(c1c(F)cccc1F)Nc1ccc(N3CCN(CCF)CC3)cc1-2 [Example 25, 5-(2,6-difluorophenyl)-9-[4-(2-fluoroethyl)piperazin-1-yl]-3-methyl-1,6-dihydropyrazolo[4,3-d][1,3]benzodiazepine]
H (H (High permeability)”: A2B (B2A)>5) | H (H (High permeability)”: A2B (B2A)>5) | N (N (Non-substrate)”: ER<2.5) | 2 to 100 nM | Cc1n[nH]c2c1N=C(c1c(F)cccc1F)Nc1ccc(N3CCO[C@@H](C)C3)cc1-2 [Example 26, (S)-4-(5-(2,6-difluorophenyl)-3-methyl-1,6-dihydrobenzo[d]pyrazolo[3,4-f][1,3]diazepin-9-yl)-2-methylmorpholine]
H (H (High permeability)”: A2B (B2A)>5) | H (H (High permeability)”: A2B (B2A)>5) | N (N (Non-substrate)”: ER<2.5) | 2 to 100 nM | Cc1n[nH]c2c1N=C(c1c(F)cc(F)cc1F)Nc1ccc(N3CCOCC3)cc1-2 [Example 27, 4-[3-methyl-5-(2,4,6-trifluorophenyl)-1,6-dihydropyrazolo[4,3-d][1,3]benzodiazepin-9-yl]morpholine]
H (H (High permeability)”: A2B (B2A)>5) | H (H (High permeability)”: A2B (B2A)>5) | N (N (Non-substrate)”: ER<2.5) | 2 to 100 nM | Cc1n[nH]c2c1N=C(c1c(F)cccc1F)Nc1cc(F)c(N3CCOCC3)cc1-2 [Example 28, 4-[5-(2,6-difluorophenyl)-8-fluoro-3-methyl-1,6-dihydropyrazolo[4,3-d][1,3]benzodiazepine-9-yl]morpholine]
H (H (High permeability)”: A2B (B2A)>5) | H (H (High permeability)”: A2B (B2A)>5) | N (N (Non-substrate)”: ER<2.5) | < 2 nM | Cc1n[nH]c2c1N=C(c1c(F)cccc1F)Nc1ccc(N3CCOCC3)cc1-2 [Example 29, 4-(5-(2,6-difluorophenyl)-3-methyl-1,6-dihydrobenzo[d]pyrazolo[3,4-f][1,3]diazepin-9-yl)morpholine]
H (H (High permeability)”: A2B (B2A)>5) | H (H (High permeability)”: A2B (B2A)>5) | N (N (Non-substrate)”: ER<2.5) | < 2 nM | Cc1n[nH]c2c1N=C(c1c(F)cccc1F)Nc1c(F)cc(N3CCOCC3)cc1-2 [Example 30, 4-(5-(2,6-difluorophenyl)-7-fluoro-3-methyl-1,6-dihydrobenzo[d]pyrazolo[3,4-f][1,3]diazepin-9-yl)morpholine]
H (H (High permeability)”: A2B (B2A)>5) | H (H (High permeability)”: A2B (B2A)>5) | N (N (Non-substrate)”: ER<2.5) | 2 to 100 nM | CCc1n[nH]c2c1N=C(c1c(F)cccc1F)Nc1cnc(N3CCOCC3)cc1-2 [Example 31, 4-[8-(2,6-difluorophenyl)-5-ethyl-3,4,7,9,12-pentazatricyclo[8.4.0.02,6]tetradeca-1(10),2(6),4,7,11,13-hexaen-13-yl]morpholine]
H (H (High permeability)”: A2B (B2A)>5) | H (H (High permeability)”: A2B (B2A)>5) | L (L (Likely)”: ER>2.5) | < 2 nM | [2H]C([2H])([2H])c1n[nH]c2c1N=C(c1c(F)cccc1F)Nc1cnc(N3CCOCC3)cc1-2 [Example 32, 4-[8-(2,6-difluorophenyl)-5-(trideuteriomethyl)-3,4,7,9,12-pentazatricyclo[8.4.0.02,6]tetradeca-1(10),2(6),4,7,11,13-hexaen-13-yl]morpholine]
H (H (High permeability)”: A2B (B2A)>5) | H (H (High permeability)”: A2B (B2A)>5) | N (N (Non-substrate)”: ER<2.5) | < 2 nM | [2H]C([2H])([2H])c1n[nH]c2c1N=C(c1c(F)cccc1F)Nc1ccc(N3CCOCC3)cc1-2 [Example 33, 4-[5-(2,6-difluorophenyl)-3-(trideuteriomethyl)-1,6-dihydropyrazolo[4,3-d][1,3]benzodiazepin-9-yl]morpholine]
H (H (High permeability)”: A2B (B2A)>5) | H (H (High permeability)”: A2B (B2A)>5) | N (N (Non-substrate)”: ER<2.5) | < 2 nM | [2H]C([2H])([2H])c1n[nH]c2c1N=C(c1c(F)cccc1F)Nc1ccc(N3CCO[C@@H](C)C3)cc1-2 [Example 34, (2S)-4-[5-(2,6-difluorophenyl)-3-(trideuteriomethyl)-1,6-dihydropyrazolo[4,3-d][1,3]benzodiazepin-9-yl]-2-methyl-morpholine]
H (H (High permeability)”: A2B (B2A)>5) | H (H (High permeability)”: A2B (B2A)>5) | N (N (Non-substrate)”: ER<2.5) | < 2 nM | Cc1n[nH]c2c1N=C(c1c(F)cccc1F)Nc1c-2cc(N2CCO[C@@H](C)C2)nc1C [Example 40, (S)-4-(5-(2,6-difluorophenyl)-3,7-dimethyl-1,6-dihydropyrazolo[4,3-d]pyrido[4,3-f][1,3]diazepin-9-yl)-2-methylmorpholine]
H (H (High permeability)”: A2B (B2A)>5) | H (H (High permeability)”: A2B (B2A)>5) | N (N (Non-substrate)”: ER<2.5) | < 2 nM | Cc1n[nH]c2c1N=C(c1c(F)cccc1F)N1CCc3nc(N4CCOCC4)cc-2c31 [Example 42, 4-[8-(2,6-difluorophenyl)-5-methyl-3,4,7,9,13-pentazatetracyclo[7.6.1.02,6.012,16]hexadeca-1(16),2(6),4,7,12,14-hexaen-14-yl]morpholine]
H (H (High permeability)”: A2B (B2A)>5) | H (H (High permeability)”: A2B (B2A)>5) | N (N (Non-substrate)”: ER<2.5) | < 2 nM | Cc1n[nH]c2c1N=C(c1c(F)cccc1F)Nc1cnc(N3CCO[C@@H](C(F)(F)F)C3)cc1-2 [Example 55, (2R)-4-[8-(2,6-difluorophenyl)-5-methyl-3,4,7,9,12-pentazatricyclo[8.4.0.02,6]tetradeca-1(10),2(6),4,7,11,13-hexaen-13-yl]-2-(trifluoromethyl)morpholine]
H (H (High permeability)”: A2B (B2A)>5) | H (H (High permeability)”: A2B (B2A)>5) | N (N (Non-substrate)”: ER<2.5) | < 2 nM | Cn1nccc1-c1cc2c(cn1)NC(c1c(F)cccc1F)=Nc1c(Cl)n[nH]c1-2 [Example 59, 3-chloro-5-(2,6-difluorophenyl)-9-(1-methyl-1H-pyrazol-5-yl)-1,6-dihydropyrazolo[4,3-d]pyrido[4,3-f][1,3]diazepine]

Compound | Caco-2 A2B (10^−6 cm/s) (Caco-2 cells) | Caco-2 B2A (10^−6 cm/s) (Caco-2 cells) | Caco-2 ER (Caco-2 cells) | IC50 [1]
Cc1n[nH]c2c1N=C(c1c(F)cccc1F)Nc1c-2cc(N2CC3(CCOCC3)C2)nc1C [Example 47, 2-[8-(2,6-difluorophenyl)-5,11-dimethyl-3,4,7,9,12-pentazatricyclo[8.4.0.02,6]tetradeca-1(10),2(6),4,7,11,13-hexaen-13-yl]-7-oxa-2-azaspiro[3.5]nonane] | M (M (Moderate permeability)”: 1≤A2B (B2A)≤5) | H (H (High permeability)”: A2B (B2A)>5) | L (L (Likely)”: ER>2.5) | < 2 nM

From US20240208972A1, “LRRK2 INHIBITORS AND USES THEREOF” (NEURON23, INC., priority 2022, published 2024)
